Data on one compound can be found in patent publication US20130296393A1, “METHOD FOR CONTROLLING CLUBROOT” (ISHIHARA SANGYO KAISHA, LTD., priority 2011, published 2013).

The assay concerns Plasmodiophora brassicae. Briefly: Influence of rainfall on clubroot control effect in cabbage (Example 4 / Comparative Example 4). As to conditions: pot; for Disease control value / Disease severity: 67 days after settled planting. The class given is in vivo. Details: key to Disease severity: 0–100 index: Σ(plants×disease index 0–4)/(plants×4)×100; key to Disease control value: {1−(treatment severity/control severity)}×100; 100 = full control. The method, then: Disease severity={Σ(number of each index of diseased plants×disease index)/(number of plants surveyed×4)}×100
Disease control value={1−(treatment disease severity/control disease severity)}×100
0: No adhesion of clubroot, 1: clubroot adhesion to lateral root, 2: clubroot adhesion to the entire lateral root or clubroot adhesion to a part of tap root, 3: adhesion of large clubroot to tap root, and 4: clubroot adhesion to the entire tap root.
The test was carried out by the same method as in Example 3 except for preparing an area subjected to a rainfall treatment of 20 mm by means of a rainfall apparatus (a treatment at a rate of 10 mm/hour for 2 hours) the day before treatment, and an area not subjected to the rainfall treatment. Sixty-seven days after the settled planting, the number of each index of clubroot adhesion to the root was investigated. For comparison, the same test was carried out on a control section where a soil drench treatment with the chemical solution for spraying was not applied.
The test was carried out by the same method as in Example 4 except that in place of the soil drench treatment with the chemical solution for spraying, 30 kg/10 a of 0.3% flusulfamide (dust formulation of Nebijin [trade name], manufactured by Mitsui Chemicals Agro, Inc.) was applied to the test soil just before the settled planting and incorporated into the soil by means of a small mixer (interfusion depth: 15 cm).
The disease severity and disease control value of Example 4 and Comparative Example 4 were determined by the same methods as in Example 1 and Comparative Example 1. In addition, the weight of cabbage in the aerial part was measured. Furthermore, the test result was shown by the average value of five plantings.

[1] abbreviates: with rainfall treatment 20 mm, 50 ppm soil drench 250 ml/plant 4 days after settled planting.
Setting [2] is: with rainfall treatment 20 mm, 50 ppm soil drench 250 ml/plant 7 days after settled planting.
[3] abbreviates: with rainfall treatment 20 mm, 50 ppm soil drench 250 ml/plant 14 days after settled planting.
Where [4] appears, read: with rainfall treatment 20 mm, 50 ppm soil drench 250 ml/plant just after settled planting.
Where [5] appears, read: without rainfall treatment, 50 ppm soil drench 250 ml/plant just after settled planting.

Consider `Cc1ccc(-c2c(Cl)nc(C#N)n2S(=O)(=O)N(C)C)cc1` [cyazofamid, 4-chloro-2-cyano-1-dimethylsulfamoyl-5-(4-methylphenyl)imidazole], for which the “Weight in the aerial part” value was found to be 133 g under setting [1]; 129 g under setting [2]; 103 g under setting [3]; 121 g under setting [4]; 129 g under setting [5]. The Disease control value was 100 under setting [1]; 93 under setting [2]; 29 under setting [3]; 100 under setting [4]; 100 under setting [5]. The Disease severity under setting [1] stood at 0; the Disease severity under setting [2] worked out at 5; the Disease severity under setting [3] came out at 50; the Disease severity under setting [4] came out at 0; the Disease severity under setting [5] was 0. Also, under “with rainfall treatment, soil drench within 7 days after settled planting”, the Control effect entry is reported as “a practical control effect was obtained”.
